Reference: PubChem BioAssay AID2060494 (Molecular Pharmacology Branch, DTP, NCI, 2025)

System: 435261-313-R-J1-PDC complex spheroid viability
Assay: Anticancer human tumor 435261-313-R-J1-PDC patient-derived colon adenocarcinoma cell line growth inhibition [GQUAD]
Conditions: for IC50: curve of first compound; for viability, T/C: stronger effect = lower value; active = viability on the fitted dose curve at most 10% of control; inactive = the rest
Outline: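 Multi-cell-type spheroids of tumor cells with HUVEC and mesenchymal stem cells, treated with drug combinations. Concentrations descend in half-log steps from near clinical Cmax, or from 10 microM where Cmax is unknown; viability read-out.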
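Note: spheroids exposed to the agents for seven days before readout.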
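Throughout, for viability, T/C: percent of vehicle control viability with DMSO wells as 100%.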

C=CC(=O)N1CCN(c2nc(=O)n(-c3c(C)ccnc3C(C)C)c3nc(-c4c(O)cccc4F)c(F)cc23)C(C)C1 (configuration not stated) + Cc1cnc(CNC(=O)c2c(=O)c3ccc(N4CCCN(C)CC4)nc3n3c2sc2ccccc23)cn1
< 0.0316 µM: IC50 (second compound 1 µM) | IC50 (second compound 3.16 µM) | IC50 (second compound 10 µM)
> 10 µM: IC50 (second compound 0.0316 µM) | IC50 (second compound 0.1 µM) | IC50 (second compound 0.316 µM)
inactive: viability, T/C (second compound 0.0316 µM, first compound 0.0316 µM) 76.1% | viability, T/C (second compound 0.0316 µM, first compound 0.1 µM) 59.5% | viability, T/C (second compound 0.0316 µM, first compound 0.316 µM) 86.8% | viability, T/C (second compound 0.0316 µM, first compound 1 µM) 68.1% | viability, T/C (second compound 0.0316 µM, first compound 3.16 µM) 98.3% | viability, T/C (second compound 0.0316 µM, first compound 10 µM) 67.4% | viability, T/C (second compound 0.1 µM, first compound 0.0316 µM) 47.9% | viability, T/C (second compound 0.1 µM, first compound 0.1 µM) 63.3% | viability, T/C (second compound 0.1 µM, first compound 0.316 µM) 56.6% | viability, T/C (second compound 0.1 µM, first compound 1 µM) 63.3% | viability, T/C (second compound 0.1 µM, first compound 3.16 µM) 63.8% | viability, T/C (second compound 0.1 µM, first compound 10 µM) 65.7% | viability, T/C (second compound 0.316 µM, first compound 0.0316 µM) 56.4% | viability, T/C (second compound 0.316 µM, first compound 0.1 µM) 59.3% | viability, T/C (second compound 0.316 µM, first compound 0.316 µM) 60% | viability, T/C (second compound 0.316 µM, first compound 1 µM) 52% | viability, T/C (second compound 0.316 µM, first compound 3.16 µM) 71.1% | viability, T/C (second compound 0.316 µM, first compound 10 µM) 65.1% | viability, T/C (second compound 1 µM, first compound 0.0316 µM) 37.4% | viability, T/C (second compound 1 µM, first compound 0.1 µM) 39.1% | viability, T/C (second compound 1 µM, first compound 0.316 µM) 48% | viability, T/C (second compound 1 µM, first compound 1 µM) 47.5% | viability, T/C (second compound 1 µM, first compound 3.16 µM) 48.8% | viability, T/C (second compound 1 µM, first compound 10 µM) 47.9% | viability, T/C (second compound 3.16 µM, first compound 0.0316 µM) 19.2% | viability, T/C (second compound 3.16 µM, first compound 0.1 µM) 21.6% | viability, T/C (second compound 3.16 µM, first compound 0.316 µM) 24.2% | viability, T/C (second compound 3.16 µM, first compound 1 µM) 29.7% | viability, T/C (second compound 3.16 µM, first compound 3.16 µM) 23.5% | viability, T/C (second compound 3.16 µM, first compound 10 µM) 14.3%
active: viability, T/C (second compound 10 µM, first compound 0.0316 µM) 0.21% | viability, T/C (second compound 10 µM, first compound 0.1 µM) 0.22% | viability, T/C (second compound 10 µM, first compound 0.316 µM) 0.17% | viability, T/C (second compound 10 µM, first compound 1 µM) 0.25% | viability, T/C (second compound 10 µM, first compound 3.16 µM) 0.22% | viability, T/C (second compound 10 µM, first compound 10 µM) 0.16%
